Source: patent US20260355239A1, “COMBINATION OF A T CELL THERAPY AND CONTINUOUS OR INTERMITTENT DGK INHIBITOR DOSING” (Juno Therapeutics, Inc., priority 2022, published 2026)

How the values were obtained:
Human venous whole blood = experiment: Human Whole Blood IFN-γ Assay; type: cell-based; conditions: anti-CD3 + anti-CD28, 24 h, normalized to 3 μM reference compound, read-out: INFg Whole Blood Normalized-Agonist EC50
Description: 9. Human Whole Blood IFN-γ Assay
Human venous whole blood (22.5 μL per well), obtained from healthy donors, was pre-treated with compounds for one hour at 37 °C in a humidified 95% air/5% CO2 incubator. The blood was stimulated with 2.5 μL anti-human CD3 and anti-CD28 mAb at a final concentration of 1 μg/mL each for 24 hours at 37 °C. IFN-γ in the supernatants was measured using AlphLISA kit (Cat #AL217).

[1] = test system: Nalm6 leukemia tumor cells; experiment: In vivo anti-tumor effect with CAR T cells, Nalm6-rFluc NSG mice (Example 10)
Description: The in vivo anti-tumor effects of a continuous Compound 17 dosing regimen in combination with anti-CD19 CAR T cells were assessed in a second CD19-expressing tumor model.

CAR-expressing T cells = experiment: Chronic stimulation assay, rescue treatment: tumor cell numbers, spheroid volume and cytokines during re-challenge of chronically stimulated CAR-expressing T cells (FIGS. 7A-8B); type: cell-based, human
Excerpt: FIGS. 7A-7B and 8A-8B show cytolytic activity and cytokine production during re-challenge in the presence of Compound 17 of chronically stimulated CAR-expressing T cells (rescue treatment).
These observations were made using a chronic stimulation assay to render T cells (e.g. CAR T cells) hypofunctional (e.g. reduced cytolysis and IL-2 secretion). Using this model, engineered T cells (e.g. CAR T cells or eTCR T cells) were examined to assess impact of DGKi, such as Compound 17, on function of the engineered T cells when present during (concurrent) or following (rescue) exposure to conditions leading to a hypofunctional, exhaustive state.

anti-CD19 CAR-T cells = experiment: CAR-T cell phenotype after acute stimulation (flow cytometry); type: cell-based, human
Excerpt: T cell compositions containing T cells expressing an exemplary anti-CD19 CAR were generated from leukapheresis samples from two healthy human adult donors by a process that included immunoaffinity-based selection of T cells by separately selecting CD4+ and CD8+ cells from the samples, resulting in two compositions enriched for CD4+ and CD8+ cells, respectively, per donor. Cells of the enriched CD4+ and CD8+ compositions were separately activated with anti-CD3/anti-CD28 beads and subjected to lentiviral transduction with a vector encoding an anti-CD19 CAR. The anti-CD19 CAR contained an anti-CD19 single-chain variable fragment (scFv) derived from a murine antibody (variable region derived from FMC63), an immunoglobulin-derived spacer, a transmembrane domain derived from CD28, a costimulatory region derived from 4-1BB, and a CD3-zeta intracellular signaling domain. […]
(§1) Prior to use, the cryopreserved CD4+ and CD8+ CAR-engineered cell compositions were thawed and combined at approximately a 1:1 CD4:CD8 ratio for each donor to prepare a combined CD4+ CAR+ and CD8+ CAR+ T cell composition. The effects of treatment with Compound 17 at various concentrations (0.1 nM, 1 nM, 10 nM, 100 nM, or 1000 nM) added at day 0 during stimulation of the combined CAR-T cell composition with a plate-bound CAR-specific anti-idiotypic antibody (see, e.g., WO2018/023100) or during co-culture with CD19-expressing cells was then assessed.
Approximately 20,000 cells of the combined CAR-T cell composition were stimulated with 3 μg/ml or 30 μg/ml plate-bound CAR-specific anti-idiotypic antibody in the presence of Compound 17. After a 48-hour stimulation, T cells were surface stained with antibodies for various activation and differentiation markers and analyzed by flow cytometry for the percent of cells positive for the assessed markers (% positive) and for mean fluorescence intensity (MFI) of expression for the assessed markers. […]

[2] = test system: A549.CD19 and Granta-519 tumor spheroids; experiment: Cytolytic activity of chronically stimulated, concurrently treated CAR-T cells, 3D spheroids; type: cell-based, human; conditions: concurrent treatment during chronic stimulation, day 9
Description: To simulate conditions of chronic stimulation, approximately 20,000 anti-CD19 CAR-expressing T cells of a combined CAR-T cell composition produced as described in Example 2 from two healthy adult donors were incubated with 30 µg/mL of plate-bound CAR-specific anti-idiotypic antibody (see, e.g., WO2018/023100) at 37 °C for a period of seven days. During this seven-day period, engineered CAR T cells were concurrently treated with Compound 17(0.1-1000 nM) or a vehicle control added at day 0.
To further assess activity of chronically stimulated cell, the chronically stimulated CAR-T cells that had been concurrently treated with DGKi were incubated with A549 CD19+ tumor spheroids or Granta-519 tumor spheroids to rechallenge the CAR-T cells at an effector to target ratio of 1:2 for up to 14 days. The tumor spheroids were engineered to express a red fluorescent dye to permit monitoring of tumor cell lysis by microscopy during the assay.
The antigen-specific cytolytic activity of the chronically stimulated CAR-expressing T cells was assessed by monitoring fluorescence (indicative of tumor cell lysis) over time. The tumor volume (normalized to time zero) was measured as the number of red calibrated units (RCU)×μm^2 area. […] Duplicate values for cell compositions manufactured from the two different healthy donors are shown.

[3] = test system: anti-CD19 CAR-T cells with K562.CD19, Granta-519 and Raji cells; experiment: CAR-T cell cytokine production in co-culture (MSD); type: cell-based, human
[4] = test system: A549.CD19 tumor spheroids; experiment: Rescue treatment: cytolytic activity of chronically stimulated CAR-T cells, 3D spheroids, A549.CD19; type: cell-based, human; conditions: day 9
[5] = test system: CD19-antigen expressing target cells (K562.CD19, Granta-519, Raji); experiment: CAR-T cell cytolytic function in co-culture; type: cell-based, human; conditions: 2.5:1 effector:target, compound present during co-culture
Excerpt: T cell compositions containing T cells expressing an exemplary anti-CD19 CAR were generated from leukapheresis samples from two healthy human adult donors by a process that included immunoaffinity-based selection of T cells by separately selecting CD4+ and CD8+ cells from the samples, resulting in two compositions enriched for CD4+ and CD8+ cells, respectively, per donor. Cells of the enriched CD4+ and CD8+ compositions were separately activated with anti-CD3/anti-CD28 beads and subjected to lentiviral transduction with a vector encoding an anti-CD19 CAR. […]
as §1
The cytolytic function of T cells treated with Compound 17 was assessed following co-culture of the combined CAR-T cell composition with various CD19-expressing lymphoma cells at a 2.5:1 effector:target ratio in the presence of Compound 17. […]

[6] = 0.3 mg/kg oral once daily Days 1-30 with 1×10^6 CAR T cells, vs CAR T cells or Compound 17 alone
[7] = 48-hour stimulation, 3 or 30 μg/mL CAR-specific anti-idiotypic antibody

CC[C@H]1CN([C@@H](CC)c2ccc(C(F)(F)F)cc2)[C@H](CC)CN1c1nc(=O)n(C)c2ccc(C#N)nc12 [Compound 17, 4-((2S,5R)-2,5-diethyl-4-((S)-1-(4-(trifluoromethyl)phenyl)propyl)piperazin-1-yl)-1-methyl-2-oxo-1,2-dihydropyrido[3,2-d]pyrimidine-6-carbonitrile]
EC50 (Human venous whole blood): 20 nM | CAR T cell expansion and/or persistence ([1]; 0.3 mg/kg oral once daily Days 1-30 following CAR T cells): increased CAR T cell expansion and/or persistence | survival [1, 6]: improved survival | tumor burden [1, 6]: lowered tumor burden | tumor suppression (tumor control index) ([1]; 0.3 mg/kg with CAR T cells, vs CAR T cells alone): enhanced tumor suppression | tumor burden vs historical CAR T cell data ([1]; 0.3 mg/kg with CAR T cells, vs separate previous experiments without Compound 17): lower tumor burden than the mice in the separate previous experiments | single-agent effects ([1]; 0.3 or 0.6 mg/kg oral once daily Days 1-30, without CAR T cells): No single-agent effects of Compound 17 were observed | recovery of activity of exhausted T cells (CAR-expressing T cells; chronically stimulated T cells exhibiting features of exhaustion): able to recover activity or have their activity restored or partially restored | rescue of T cell function of exhausted T cells (CAR-expressing T cells; rescue treatment, later exposure): could rescue or restore T cell function, including cytokine production and cytolytic activity, of exhausted T cells | expression of CD27 and CD62L (anti-CD19 CAR-T cells; [7]): decreased expression of CD27 and CD62L | expression of CD69 and PD-1 (anti-CD19 CAR-T cells; [7]): increased expression of CD69 and PD-1 | effect on cell phenotype, dose dependence (anti-CD19 CAR-T cells; in particular 30 μg/mL CAR-specific anti-idiotypic antibody): dose-dependent | cytolytic activity of CAR T cells (normalized tumor volume) [2]: modestly reduced the cytolytic activity of the CAR T cells | production of IFNγ, IL-2 and TNFα ([3]; 48 h co-culture with K562.CD19, Granta-519, Raji): dose-dependent increase in production of all three cytokines | cytokine production, particularly IL-2, greatest effect ([3]; higher concentrations of Compound 17, Granta-519 cells (low CD19)): greatest effect during co-culture with Granta-519 cells | cytolytic activity of CAR T cells against A549.CD19 spheroids [4]: improved the cytolytic activity of CAR T cells against both A549.CD19 and Granta-519 tumor spheroids | cytolytic function (specific lysis) [5]: did not affect cytolytic function
